In data set [1] the test system is human PASMCs from PAH patients. In words: Cell proliferation assay (MTS), serum-induced growth. It is filed as cell-based. The protocol:
Primary cell lines of distal PASMCs from PAH patients were derived from explanted lungs as previously described (Falcetti et al., 2010; Bubb et al., 2014). These cells have an abnormal proliferative capacity when grown in culture (Zhang et al., 2007; Falcetti et al., 2010). Frozen cells were revived and grown in human smooth muscle basal medium-2 (SMBM; Lonza, Slough, UK) supplemented with 9% fetal bovine serum (FBS) at 37° C. in a humidified atmosphere of 5% CO2. After reaching confluence, cells were washed with phosphate-buffered saline (PBS) and treated with trypsin-EDTA for further passage. Only cells between passages 3 and 10 were used for experiments.
Comparative concentration-dependent effects of IP receptor agonists on cell proliferation were assessed on human PASMCs derived from PAH patients. Cells were seeded onto 96-well plates at a density of 1×10^4 cells/ml and grown at 37° C. in a humidified CO2 incubator in human smooth muscle basal medium-2 (SMBM; Lonza) containing 9% FBS and penicillin-streptomycin (Pen/Strep; 50 units/ml). After 24 hours, cells were growth arrested by incubating for 48 hours in fresh media containing no added serum. Media was then subsequently removed, replaced with human SMBM containing 9% serum with or without 0.1% DMSO in the absence and presence of the IP receptor agonist (either ralinepag, iloprost, treprostinil or MRE-269) and cells treated with the IP receptor agonist for 4 days over the concentration range ([…]). Responses were directly compared in cells containing the IP receptor antagonist, RO-1138452 (1 μM), which was added to cells 30-60 minutes prior to the addition of the IP agonist and remained throughout the experiment. Cells incubated with no added serum over the same time period (4 days) acted as the time control.
Cell proliferation was obtained using an MTS proliferation kit (Promega), a colorimetric method for determining the number of viable cells which is based on the cleavage of the tetrazolium salt MTS to formazan by cellular mitochondrial dehydrogenases. An increase in cell number leads to a proportional increase in the amount of formazan dye formed which is quantified by measuring the absorbance of the dye solution at 490 nm. In each case background absorbance was corrected by subtracting the average absorbance from the “no cell” control wells from all other absorbance values.
Cell proliferation was then normalized to the growth response induced by FBS alone, which was taken as the FBS response minus the time control (=100% growth at 4 days). Growth responses induced in presence of solvent±drugs is shown as % change in cell proliferation relative to the FBS response alone in all figures.
All data are presented as mean±standard error of mean (S.E.M) of at least 5 observations. Agonist log-concentration curves were constructed and fitted using the non-linear fitting routine in GraphPad Prism 4 or 6 (San Diego, Calif., USA). The concentration of agonist causing 50% of the maximal response (Emax) was expressed as the negative log (pEC50) and the mean EC50 calculated. P values <0.05 are considered statistically significant.

The subject of data set [2] is human PASMCs from PAH patients. The data set can be described thus: Cyclic AMP assay. Format: cell-based. The procedure: Human PASMCs from PAH patients were grown to 70-80% confluence in 12 well plates in DMEM/F12 containing 9% foetal bovine serum (FBS), penicillin (50 U/ml)/streptomycin (50 ag/ml). To assess the time-course of cAMP elevation, cells were stimulated with 100 nM ralinepag for varying times (0.5, 1, 2, 4, 8, 24, 48 hours). This dose of ralinepag was chosen on the basis that it was close to the EC50 for cAMP generation in preliminary experiments. In other experiments, the IP receptor agonist was added for a specified time (60 minutes) over a full concentration range (0.1-10,000 nM) in the absence and presence of […] of the IP receptor antagonist, RO-1138452. The antagonist is added 30 minutes beforehand and remained throughout.
To extract cyclic AMP, the medium was aspirated and PASMCs cells incubated in 0.1 M HCl for 20 minutes on ice followed by centrifugation at 1000 g for 10 minutes at 4° C. The protein concentration in the supernatant was determined using a […] protein assay (BCA, Novagen, EmD Chemicals, CA, USA). Intracellular cyclic AMP was measured using a competitive enzyme immunoassay 96 well plate kit (ADI-900-163, Enzo Life Sciences, Exeter, UK) and the assay performed according to the manufacturer's instructions. Each sample was run in duplicate and data expressed as pmol of cAMP per mg of total protein for each individual sample. Basal levels were subtracted from each agonist concentration data point. Given the large variation (˜15-fold) in cAMP generation from different patient samples, data was also normalized to the peak cyclic AMP response (assigned 100%) in each cell isolate.

Data set [3] is described as follows: Half-life in vivo. As to conditions: irrespective of the dose.
A short description of data set [4]: 22-week randomized, double-blind, placebo-controlled clinical trial. Format: in vivo, patients. The procedure: A 22-week randomized, double-blind, placebo-controlled study with a dose titration period of up to 9 weeks was conducted. Sixty-one patients were randomized 2:1 ralinepag to placebo. Right Heart Catheterization (RHC) measurements were obtained prior to study Day 1 of the dose titration period and at Week 22. The following values were obtained and recorded: pulmonary artery pressure (PAP) (systolic, diastolic, and mean), heart rate (HR), right atrial pressure (RAP), pulmonary capillary wedge pressure (PCWP) right ventricular pressure (RVP) and cardiac output (CO), pulmonary vascular resistance (PVR), arterial and mixed venous oxygen saturation (FiO2) (if applicable). Systemic vascular resistance (SVR) was estimated from blood pressure measurements. All patients were receiving background PAH treatment with an endothelin receptor antagonist, phosphodiesterase type-5-inhibitor, or soluble guanylate cyclase activator, alone or in combination.
The primary efficacy endpoint for the study was change from baseline in PVR after 22 weeks of treatment. Additional analyses included change from baseline in 6 MWD after 22 weeks of treatment, hemodynamics, and safety and tolerability. Ralinepag was administered as a capsule in 0.01, 0.02, 0.03, 0.04, and 0.10 mg dose strengths.
The starting dose of ralinepag was 0.01 mg twice daily. The dose of ralinepag was titrated according to patient tolerability. If the initial dose was tolerated (0.01 mg twice daily), then the dose was increased once a week in the following fashion: 0.02 mg twice daily, 0.03 mg twice daily, 0.04 mg twice daily, 0.06 mg twice daily, 0.08 mg, 0.1 mg twice daily, 0.2 mg twice daily and 0.3 mg twice daily. The dose was optionally escalated to a possible maximum total daily dose of 0.6 mg (0.3 mg twice daily), pending tolerability.

Usually inhibition stands for the drop in the measured response relative to a control, in per cent.

For `O=C(O)COC[C@H]1CC[C@H](COC(=O)N(c2ccccc2)c2ccc(Cl)cc2)CC1` [ralinepag, 2-(((1r,4r)-4-(((4-chlorophenyl)(phenyl)carbamoyloxy)methyl)cyclohexyl)methoxy)acetic acid], 0.001 µM produced 14% inhibition in data set [1] (Homo sapiens, PASMC, 1 nM ralinepag alone). Further, the inhibition at 0.01 µM in data set [1] (Homo sapiens, PASMC, 10 nM ralinepag in the presence of 100 nM bosentan) is 21%. The molecule also registered an inhibition at 10 µM in data set [1] (Homo sapiens, PASMC, 10 μM ralinepag alone (highest dose tested)) of 50%. Also, in data set [1] (Homo sapiens, PASMC, 96 h, drug alone at 100 nM, compared to FBS and DMSO, 4 days), the inhibition at 0.1 µM is 28%. The EC50 in data set [1] (Homo sapiens, PASMC, 96 h, ralinepag alone or + 100 nM drug, from individual fits, 9% FBS + 0.1% DMSO, 4 days) is 25 nM; in data set [1] (Homo sapiens, PASMC, ralinepag in the presence of 100 nM riociguat, individual fits) it was 10 nM; in data set [2] (Homo sapiens, PASMC, preliminary experiments, read-out: EC50 for cAMP generation) it was around 100 nM. Besides, in data set [1] (IP receptor antagonist RO-1138452 (1 μM)), the “antiproliferative response in the presence of an IP receptor antagonist” value was “completely inhibited”. Further, the “maximal effect compared with treprostinil” value in data set [1] (cell proliferation assay) and in data set [2] (cyclic AMP assay) was “weaker maximal effects” throughout. Further, in data set [1] (combined with 100 nM macitentan vs ralinepag alone), the “fold lower dose of ralinepag inhibiting cell proliferation” value is recorded as 10 fold. Further, the “IP receptor dependence of the effect” value in data set [1] (cyclic AMP and cell proliferation assays in human PASMCs from PAH patients) is reported as “selective IP receptor agonists”. Besides, the “dose of ralinepag at which significant inhibition of cell growth occurred” value in data set [1] (in the presence of 100 nM riociguat) was 10 pM. Besides, in data set [1] (in the presence of 100 nM sildenafil, mean fits (Table 2)), the potency enhancement came to 8 fold. Also, the “antiproliferative effect compared to ralinepag alone” value in data set [1] (in the presence of 100 nM treprostinil, entire concentration range, mean data) is “more effective in the presence of treprostinil”. Besides, the “fold more antiproliferation effects than MRE-269” value in data set [1] (ralinepag vs MRE-269) is listed as 10 fold. For the same molecule, in data set [2] (ralinepag vs MRE-269), the “fold more cyclic AMP than MRE-269” value came out at 2 fold. Further, the plasma half-life result in data set [3] is “relatively long plasma half-life”. In data set [4] (after 22 weeks), the “6-minute walk distance (6MWD)” value is “numerical improvement”. Besides, the “change from baseline in pulmonary vascular resistance (PVR)” value in data set [4] (after 22 weeks, compared to placebo, on background PAH treatment) is given as “statistically significant change from baseline”. In addition, the adverse events entry in data set [4] (human, in vivo) was “consistent with other prostacyclin treatments”.

These data come from patent US12377067B2, “Methods of treating PAH with combinations of ralinepag and other agents” (Arena Pharmaceuticals, Inc., priority 2016, dated 2025).
